Consider two compounds from patent US7056450B2, “Highly concentrated aqueous solutions of N,N-dialkyl-glycines and process for preparation thereof” (Showa Denko K.K., priority 2001, dated 2006).

A short description of the series: Standing test of aqueous solution for crystalline deposit. Format: physicochemical.

Take `CN(C)CC(=O)[O-].[Na+]` [N,N-dimethylglycine sodium salt]: the “crystalline deposit on standing” value (aqueous 30% by mass solution, left standing at room temperature) is on record as “crystalline N,N-dimethylglycine sodium salt deposited”.

Turning to `CN(C)CC(=O)O` [N,N-dimethylglycine], the “crystalline deposit on standing” value (aqueous 60% by mass solution, left standing at 0° C. for 10 days) is given as “no crystalline deposit was observed”.
